Test results reported in PubChem BioAssay (NCI).
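The concentration for 50% growth inhibition is given as GI50. TGI: total growth inhibition.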

Tests used:
Assay in all cases: DTP human tumour cell line panel, 384-well format
[1] = tested on: 786-0 renal
[2] = tested on: A498 renal
[3] = tested on: A549 NSCLC
[4] = tested on: ACHN renal
[5] = tested on: BT-549 breast
[6] = tested on: CAKI-1 renal
[7] = tested on: CCRF-CEM leukemia
[8] = tested on: EKVX NSCLC
[9] = tested on: HCC-2998 colon
[10] = tested on: HCT-116 colon
[11] = tested on: HCT-15 colon
[12] = tested on: HL-60(TB) leukemia
[13] = tested on: HOP-62 NSCLC
[14] = tested on: HOP-92 NSCLC
[15] = tested on: HT29 colon
[16] = tested on: IGROV1 ovarian
[17] = tested on: K-562 leukemia
[18] = tested on: KM12 colon
[19] = tested on: M14 melanoma
[20] = tested on: MCF7 breast
[21] = tested on: MDA-MB-231 breast
[22] = tested on: MDA-MB-435 melanoma
[23] = tested on: MDA-MB-468 breast
[24] = tested on: MOLT-4 leukemia
[25] = tested on: NCI-H226 lung
[26] = tested on: NCI-H23 lung
[27] = tested on: NCI-H322M lung
[28] = tested on: NCI-H460 NSCLC
[29] = tested on: NCI-H522 lung
[30] = tested on: NCI/ADR-RES ovarian
[31] = tested on: OVCAR-5 ovarian
[32] = tested on: OVCAR-8 ovarian
[33] = tested on: PC-3 prostate
[34] = tested on: RPMI-8226 leukemia
[35] = tested on: RXF 393 renal
[36] = tested on: SF-268 CNS
[37] = tested on: SF-295 CNS
[38] = tested on: SF-539 CNS
[39] = tested on: SK-MEL-2 melanoma
[40] = tested on: SK-MEL-28 melanoma
[41] = tested on: SK-MEL-5 melanoma
[42] = tested on: SN12C renal
[43] = tested on: SNB-19 CNS
[44] = tested on: SR leukemia
[45] = tested on: T-47D breast
[46] = tested on: U251 glioblastoma
[47] = tested on: UACC-257 melanoma

Question: How did the GI50 [1] turn out when `Cc1[nH]c2ccccc2c1CCNCc1ccc(/C=C/C(=O)NO)cc1` was run?
Answer: 21.4 nM

Question: What about the TGI [1] of the same compound?
Answer: 114 nM

Question: And the GI50 [2]?
Answer: 16.6 nM

Question: And the TGI [2]?
Answer: 36 nM

Question: What about the GI50 [3] of the same compound?
Answer: 15.6 nM

Question: And the TGI [3]?
Answer: 42.2 nM

Question: And the GI50 [4]?
Answer: 20.3 nM

Question: What about the TGI [4] of the same compound?
Answer: 53.8 nM

Question: What about the GI50 [5] of the same compound?
Answer: 43.4 nM

Question: What about the TGI [5] of the same compound?
Answer: 123 nM

Question: And the GI50 [6]?
Answer: 13.1 nM

Question: What about the TGI [6] of the same compound?
Answer: 28.6 nM

Question: And the GI50 [7]?
Answer: < 10 nM

Question: And the TGI [7]?
Answer: < 10 nM

Question: What about the GI50 [8] of the same compound?
Answer: 42.7 nM

Question: What about the TGI [8] of the same compound?
Answer: 398 nM

Question: What about the GI50 [9] of the same compound?
Answer: 15.1 nM

Question: And the TGI [9]?
Answer: 33.7 nM

Question: What about the GI50 [10] of the same compound?
Answer: < 10 nM

Question: And the TGI [10]?
Answer: 17.9 nM

Question: And the GI50 [11]?
Answer: 51.5 nM

Question: And the TGI [11]?
Answer: 257 nM

Question: What about the GI50 [12] of the same compound?
Answer: < 10 nM

Question: What about the TGI [12] of the same compound?
Answer: < 10 nM

Question: What about the GI50 [13] of the same compound?
Answer: 13.1 nM

Question: What about the TGI [13] of the same compound?
Answer: 64.4 nM

Question: What about the GI50 [14] of the same compound?
Answer: 13.3 nM

Question: And the TGI [14]?
Answer: 32.5 nM

Question: And the GI50 [15]?
Answer: 12.5 nM

Question: What about the TGI [15] of the same compound?
Answer: 28.5 nM

Question: And the GI50 [16]?
Answer: 10.8 nM

Question: What about the TGI [16] of the same compound?
Answer: 26.4 nM

Question: And the GI50 [17]?
Answer: < 10 nM

Question: And the TGI [17]?
Answer: 14.8 nM

Question: And the GI50 [18]?
Answer: 23.1 nM

Question: And the TGI [18]?
Answer: 94.8 nM

Question: What about the GI50 [19] of the same compound?
Answer: 14.7 nM

Question: And the TGI [19]?
Answer: 82.2 nM

Question: What about the GI50 [20] of the same compound?
Answer: < 11 nM

Question: What about the TGI [20] of the same compound?
Answer: 25.9 nM

Question: And the GI50 [21]?
Answer: 12.1 nM

Question: And the TGI [21]?
Answer: 30.5 nM

Question: What about the GI50 [22] of the same compound?
Answer: 18.1 nM

Question: And the TGI [22]?
Answer: 43.4 nM

Question: And the GI50 [23]?
Answer: < 10 nM

Question: What about the TGI [23] of the same compound?
Answer: 17.9 nM

Question: What about the GI50 [24] of the same compound?
Answer: < 10 nM

Question: And the TGI [24]?
Answer: < 10 nM

Question: What about the GI50 [25] of the same compound?
Answer: 35.9 nM

Question: And the TGI [25]?
Answer: 133 nM

Question: And the GI50 [26]?
Answer: 13.9 nM

Question: What about the TGI [26] of the same compound?
Answer: 41.1 nM

Question: And the GI50 [27]?
Answer: 13.9 nM

Question: And the TGI [27]?
Answer: 53.8 nM

Question: And the GI50 [28]?
Answer: 12.5 nM

Question: And the TGI [28]?
Answer: 51.1 nM

Question: What about the GI50 [29] of the same compound?
Answer: < 10 nM

Question: And the TGI [29]?
Answer: 18.5 nM

Question: And the GI50 [30]?
Answer: 39 nM

Question: And the TGI [30]?
Answer: 181 nM

Question: What about the GI50 [31] of the same compound?
Answer: 10.1 nM

Question: What about the TGI [31] of the same compound?
Answer: 33.7 nM

Question: And the GI50 [32]?
Answer: < 10 nM

Question: And the TGI [32]?
Answer: 28.6 nM

Question: What about the GI50 [33] of the same compound?
Answer: 14.2 nM

Question: What about the TGI [33] of the same compound?
Answer: 39.9 nM

Question: What about the GI50 [34] of the same compound?
Answer: < 10 nM

Question: And the TGI [34]?
Answer: < 10 nM

Question: And the GI50 [35]?
Answer: < 11.7 nM

Question: What about the TGI [35] of the same compound?
Answer: 18.6 nM

Question: And the GI50 [36]?
Answer: 15.2 nM

Question: What about the TGI [36] of the same compound?
Answer: 39.1 nM

Question: What about the GI50 [37] of the same compound?
Answer: 18.5 nM

Question: What about the TGI [37] of the same compound?
Answer: 41.3 nM

Question: And the GI50 [38]?
Answer: 18.6 nM

Question: And the TGI [38]?
Answer: 86 nM

Question: And the GI50 [39]?
Answer: < 10 nM

Question: And the TGI [39]?
Answer: < 10 nM

Question: What about the GI50 [40] of the same compound?
Answer: 15.3 nM

Question: And the TGI [40]?
Answer: 38 nM

Question: What about the GI50 [41] of the same compound?
Answer: < 10 nM

Question: What about the TGI [41] of the same compound?
Answer: 14 nM

Question: What about the GI50 [42] of the same compound?
Answer: 18.6 nM

Question: What about the TGI [42] of the same compound?
Answer: 41.1 nM

Question: What about the GI50 [43] of the same compound?
Answer: 23.4 nM

Question: What about the TGI [43] of the same compound?
Answer: 65.3 nM

Question: What about the GI50 [44] of the same compound?
Answer: < 10 nM

Question: What about the TGI [44] of the same compound?
Answer: < 10 nM

Question: What about the GI50 [45] of the same compound?
Answer: < 10.9 nM

Question: And the TGI [45]?
Answer: 21.4 nM

Question: What about the GI50 [46] of the same compound?
Answer: 12.2 nM

Question: And the TGI [46]?
Answer: 26.8 nM

Question: And the GI50 [47]?
Answer: < 10.7 nM

Question: What about the TGI [47] of the same compound?
Answer: 24.4 nM
